Assay results from patent publication US10774064B2 (Cadent Therapeutics, Inc., priority 2016, dated 2020).

Molecular target: T1, small-conductance Ca2+-activated K+ channels (SK channels, subtype 2) (Homo sapiens, UniProt Q9H2S1)
T1 construct: expressed in transfected cells; host or cells: HEK293
Test: whole-cell patch-clamp of ionic current through SK2 channels in HEK293 cells (SC100)
Type: cell-based
Conditions: whole-cell patch-clamp, HEK293 cells expressing SK2 channels; concentration that increases the basal current by 100%
Method in brief: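 Whole-cell patch-clamp recording of current in HEK293 cells expressing SK2 channels. SC100 is the compound concentration that increases basal current by 100%.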

SMILES | SC100 (μM) | SC100
Cc1csc(-c2nc(NC3CCC(F)(F)CC3)cc(N3CCOCC3COC(C)C)n2)n1 (stereo not drawn) [IN10965-091-P1, N-(4,4-difluorocyclohexyl)-6-(3-(isopropoxymethyl)morpholino)-2-(4-methylthiazol-2-yl)pyrimidin-4-amine] | + (+ means >1 uM) | 
Cc1cc(C)n(-c2ncc(N3CCOCC3)c(NC3CCC(F)(F)CC3)n2)n1 [IN10966-011-P1, N-(4,4-difluorocyclohexyl)-2-(3,5-dimethyl-1H-pyrazol-1-yl)-5-morpholinopyrimidin-4-amine] | + (+ means >1 uM) | 
Cc1csc(-c2nc(NC3CCCC(F)(F)C3)cc(N3CCOCC3)n2)n1 (stereo not drawn) [IN10966-028-P1] | ++ (++ means 200 nM-1000 nM) | 
Cc1cc(NC2CC=C(F)CC2)nc(-c2nc(C)cs2)n1 (stereo not drawn) [IN10966-057-P2, N-(4-fluorocyclohex-3-en-1-yl)-6-methyl-2-(4-methylthiazol-2-yl)pyrimidin-4-amine] | ++ (++ means 200 nM-1000 nM) | 
Cc1cc(C)n(-c2cc(C)c(NC3CCC(F)(F)CC3)nn2)n1 [IN10966-083-P1, N-(4,4-difluorocyclohexyl)-6-(3,5-dimethyl-1H-pyrazol-1-yl)-4-methylpyridazin-3-amine] | + (+ means >1 uM) | 
COCCOc1cc(NC2CCC(F)(F)CC2)nc(-n2ccc(C)n2)n1 [IN10966-093-P1] | + (+ means >1 uM) | 
Cc1ccn(-c2nc(NC3CCC(F)(F)CC3)cc(OCCN(C)C)n2)n1 [IN10966-095-P1] | + (+ means >1 uM) | 
Cc1ccnn1-c1cc(C#N)cc(NC2CCC(F)(F)CC2)n1 [IN10967-061-P1, 2-((4,4-difluorocyclohexyl)amino)-6-(5-methyl-1H-pyrazol-1-yl)isonicotinonitrile] | + (+ means >1 uM) | 
Cc1ccn(-c2cc(CN)cc(NC3CCC(F)(F)CC3)n2)n1 [IN10967-063-P1, 4-(aminomethyl)-N-(4,4-difluorocyclohexyl)-6-(3-methyl-1H-pyrazol-1-yl)pyridin-2-amine] | ++ (++ means 200 nM-1000 nM) | 
Cc1csc(-c2nc(NC3CCC(F)(F)CC3)cc(C(O)c3ccccc3)n2)n1 (stereo not drawn) [IN10971-033-P1, (6-((4,4-difluorocyclohexyl)amino)-2-(4-methylthiazol-2-yl)pyrimidin-4-yl) (phenyl) methanol] | + (+ means >1 uM) | 
Cc1ccc(-c2nc(NC3CCC(F)(F)CC3)cc(N3CCOCC3)n2)n1C [IN10971-059-P1, N-(4,4-difluorocyclohexyl)-2-(1,5-dimethyl-1H-pyrrol-2-yl)-6-morpholino pyrimidin-4-amine] | + (+ means >1 uM) | 
FC1(F)CCC(Nc2cc(N3CCOCC3)nc(-c3ccco3)n2)CC1 [IN10971-060-P1, N-(4,4-difluorocyclohexyl)-2-(furan-2-yl)-6-morpholinopyrimidin-4-amine] | + (+ means >1 uM) | 
Cc1ccc(-c2nc(NC3CCC(F)(F)CC3)cc(N3CCOCC3)n2)o1 [IN10971-077-P1, N-(4,4-difluorocyclohexyl)-2-(5-methylfuran-2-yl)-6-morpholinopyrimidin-4-amine] | + (+ means >1 uM) | 
Cc1cc(C)n(-c2nc(NC3CCC(F)(F)CC3)cc(N3CCOC(C#N)C3)n2)n1 (stereo not drawn) [IN10971-081-P1, 4-(6-((4,4-difluorocyclohexyl)amino)-2-(3,5-dimethyl-1H-pyrazol-1-yl)pyrimidin-4-yl) morpholine-2-carbonitrile] | ++ (++ means 200 nM-1000 nM) | 
Cc1ccc(-c2nc(NC3CCC(F)(F)CC3)cc(C(C)O)n2)o1 (stereo not drawn) [IN10971-088-P1, 1-(6-((4,4-difluorocyclohexyl)amino)-2-(5-methylfuran-2-yl)pyrimidin-4-yl) ethan-1-ol] | + (+ means >1 uM) | 
Cc1cc(C)n(-c2nc(C(C)O)cc(N(C)C3CCCCC3)n2)n1 (stereo not drawn) [IN10973-004-P1] | + (+ means >1 uM) | 
Cc1cc(C)n(-c2nc(NC3CCCC(C(F)(F)F)C3)cc(C(C)O)n2)n1 (stereo not drawn) [IN10973-005-P1] | + (+ means >1 uM) | 
Cc1cc(C)n(-c2nc(NC3CCCCC3)cc(C(C)O)n2)n1 (stereo not drawn) [IN10973-008-P1] | + (+ means >1 uM) | 
COC(=O)N1CCC(Oc2cc(NC3CCC(F)(F)CC3)nc(-c3nc(C)cs3)n2)C1 (stereo not drawn) [IN10973-025-P1] |  | 1 µM
Cc1csc(-c2nc(NC3CCC(F)(F)CC3)cc(C(C)N3CCOCC3)n2)n1 (stereo not drawn) [IN10973-028-P1, N-(4,4-difluorocyclohexyl)-2-(4-methylthiazol-2-yl)-6-(1-morpholinoethyl)pyrimidin-4-amine] | + (+ means >1 uM) | 
FC1(F)CCC(Nc2cc(N3CCOCC3)nc(-n3cccn3)n2)CC1 [IN10973-038-P1, N-(4,4-difluorocyclohexyl)-6-morpholino-2-(1H-pyrazol-1-yl)pyrimidin-4-amine] | + (+ means >1 uM) | 
Cc1ccn(-c2nc(NC3CCC(F)(F)CC3)cc(S(C)(=O)=O)n2)n1 [IN10973-041-P1] | + (+ means >1 uM) | 
Cc1csc(-c2nc(NC3CCC(F)(F)CC3)cc(C(C)S(C)(=O)=O)n2)n1 (stereo not drawn) [IN10973-053-P1, N-(4,4-difluorocyclohexyl)-6-(1-(methylsulfonyl)ethyl)-2-(4-methylthiazol-2-yl)pyrimidin-4-amine] | + (+ means >1 uM) | 

SMILES | SC100 (μM) | SC100
Cc1ccn(-c2nc(NC3CCC(F)(F)CC3)cc(C(C)S(C)(=O)=O)n2)n1 (stereo not drawn) [IN10973-060-P1, N-(4,4-difluorocyclohexyl)-2-(3-methyl-1H-pyrazol-1-yl)-6-(1-(methylsulfonyl)ethyl)pyrimidin-4-amine] | + (+ means >1 uM) | 
COC(C)c1cc(NC2CCC(F)(F)CC2)nc(-n2ccc(C)n2)n1 (stereo not drawn) [IN10973-083-P1, N-(4,4-difluorocyclohexyl)-6-(1-methoxyethyl)-2-(3-methyl-1H-pyrazol-1-yl)pyrimidin-4-amine] | + (+ means >1 uM) | 
Cc1ccn(-c2cc(NC3CCC(F)(F)CC3)cc(N3CCOCC3)n2)n1 [IN10973-098-P1, N-(4,4-difluorocyclohexyl)-2-(3-methyl-1H-pyrazol-1-yl)-6-morpholinopyridin-4-amine] | + (+ means >1 uM) | 
Cc1csc(-c2nc(NC3(C)CCCCC3)cc(N3CCOCC3)n2)n1 [IN10973-099-P1] | + (+ means >1 uM) | 
Cc1cc(C)n(-c2nc(NC3CCC(F)(F)CC3)cc(N3CCOC(COC(F)F)C3)n2)n1 (stereo not drawn) [IN10984-022-P1] | ++ (++ means 200 nM-1000 nM) | 
Cc1ccn(-c2nc(NC3CCC(F)(F)CC3)cc(N(C)C3CCOC3)n2)n1 (stereo not drawn) [IN10984-043-P1] | + (+ means >1 uM) | 
Cc1ccn(-c2nc(NC3CCC(F)(F)CC3)nc(N3CCOCC3)n2)n1 [IN10984-079-P1, N-(4,4-difluorocyclohexyl)-4-(3-methyl-1H-pyrazol-1-yl)-6-morpholino-1,3,5-triazin-2-amine] | + (+ means >1 uM) | 
Cc1cc(C)n(-c2nc(NC3CCC(F)(F)CC3)cc(C(O)c3ccccc3)n2)n1 (stereo not drawn) [IN10987-030-P1] | + (+ means >1 uM) | 
Cc1ccn(-c2nc(NC3CCC(F)(F)CC3)cc(C(O)c3ccccc3)n2)n1 (stereo not drawn) [IN10987-039-P1] | + (+ means >1 uM) | 
Cc1csc(-c2nc(NC3CCC(F)(F)CC3)cc(N3C[C@@H]4C[C@H]3CN4)n2)n1 [IN10987-050-P1] | + (+ means >1 uM) | 
Cc1cc(C)n(-c2nc(NC3CCC(F)(F)CC3)cc(C(C)N3CCOCC3)n2)n1 (stereo not drawn) [IN10987-055-P1, N-(4,4-difluorocyclohexyl)-2-(3,5-dimethyl-1H-pyrazol-1-yl)-6-(1-morpholinoethyl)pyrimidin-4-amine] | + (+ means >1 uM) | 
Cc1csc(-c2nc(NC3CCC(F)(F)CC3)cc(N3CC4CC3CN4C)n2)n1 (stereo not drawn) [IN10987-056-P1] | ++ (++ means 200 nM-1000 nM) | 
Cc1cc(C)n(-c2nc(OC3CCC(F)(F)CC3)cc(N3CCOCC3)n2)n1 [IN10991-021-P1, 4-(6-((4,4-difluorocyclohexyl)oxy)-2-(3,5-dimethyl-1H-pyrazol-1-yl)pyrimidin-4-yl)morpholine] | + (+ means >1 uM) | 
Cc1cc(C)n(-c2cc(N3CCOCC3)cc(NC3CCC(F)(F)CC3)n2)n1 [IN10991-044-P1, N-(4,4-difluorocyclohexyl)-6-(3,5-dimethyl-1H-pyrazol-1-yl)-4-morpholinopyridin-2-amine] | ++ (++ means 200 nM-1000 nM) | 
Cc1cc(C)n(-c2cc(NC3CCC(F)(F)CC3)cc(N3CCOCC3)n2)n1 [IN10991-065-P1, N-(4,4-difluorocyclohexyl)-2-(3,5-dimethyl-1H-pyrazol-1-yl)-6-morpholinopyridin-4-amine] | + (+ means >1 uM) | 
Cc1cc(C)n(-c2cc(NC3CCC(F)(F)CC3)nc(N3CCOCC3)c2)n1 [IN10991-067-P1, N-(4,4-difluorocyclohexyl)-4-(3,5-dimethyl-1H-pyrazol-1-yl)-6-morpholinopyridin-2-amine] | + (+ means >1 uM) | 
Cc1ccn(-c2cc(CN3CCOC3=O)cc(NC3CCC(F)(F)CC3)n2)n1 [IN10991-091-P1] | ++ (++ means 200 nM-1000 nM) | 
Fc1cnn(-c2nc(NC3CCC(F)(F)CC3)cc(N3CCOCC3)n2)c1 [IN11030-013-P1, N-(4,4-difluorocyclohexyl)-2-(4-fluoro-1H-pyrazol-1-yl)-6-morpholinopyrimidin-4-amine] | + (+ means >1 uM) | 
FC1(F)CCC(Nc2cc(N3CCOCC3)nc(-c3ccc[nH]3)n2)CC1 [IN11030-023-P1, N-(4,4-difluorocyclohexyl)-6-morpholino-2-(1H-pyrrol-2-yl)pyrimidin-4-amine] | + (+ means >1 uM) | 
Cc1csc(-c2nc(NC3CCC(F)(F)CC3)cc(N3CC(F)(F)OC(F)(F)C3)n2)n1 [IN11030-032-P1] | +++ (+++ means <200 nM) | 
Cc1cc(C)n(-c2nc(NC3CCC(F)(F)CC3)cc(N3CC(F)(F)OC(F)(F)C3)n2)n1 [IN11030-035-P1] | ++ (++ means 200 nM-1000 nM) | 
Cc1ccn(-c2nc(NC3CCC(F)(F)CC3)cc(N3CC(F)(F)OC(F)(F)C3)n2)n1 [IN11030-044-P1] | ++ (++ means 200 nM-1000 nM) | 
